Source: article PMC6726534 (Biotechnology and bioengineering, 2019)
Values after ≈ are worked out from the molar mass of the structure shown. Where a SMILES comes first, the peptide text is derived from it.

Key:
Format in all cases: cell-based
E. coli J2210 = settings: J2210, 1 h
[1] = test system: Salmonella enterica serovar Enteritidis MH91989; settings: serovar Enteritidis MH91989, 1 h
E. coli JW0013 = settings: JW0013, 1 h
[2] = test system: Salmonella enterica serovar Typhimurium ATCC SL1344; settings: ATCC SL1344, 1 h
E. coli JJ2489 = settings: JJ2489, 1 h

Q: For `CC(C)C[C@H](NC(=O)[C@H](CCCNC(=N)N)NC(=O)[C@@H]1CCCN1C(=O)[C@H](CCCNC(=N)N)NC(=O)[C@@H]1CCCN1C(=O)[C@@H]1CCCN1C(=O)[C@H](CCCNC(=N)N)NC(=O)[C@@H]1CCCN1C(=O)[C@H](CCC(N)=O)NC(=O)[C@@H]1CCCN1C(=O)[C@H](CCCCN)NC(=O)[C@H](Cc1ccc(O)cc1)NC(=O)[C@@H](NC(=O)[C@@H]1CCCN1C(=O)[C@H](CCCNC(=N)N)NC(=O)[C@H](CC(N)=O)NC(=O)[C@H](CC(N)=O)NC(=O)CN)C(C)C)C(=O)O` [Api_I8K/H15R] (H-GNNRPVYKPQPRPPRPRL-OH), which MIC (E. coli J2210) is on record?
A: The MIC was 0.252 ± 0.087 µM (≈ 0.54 µg/mL).

Q: What about the MIC [1] of the same molecule?
A: Its MIC is 0.096 ± 0.023 µM (≈ 0.206 µg/mL).

Q: And the MIC (E. coli JW0013)?
A: The MIC was 0.062 ± 0.027 µM (≈ 0.133 µg/mL).

Q: What about the MIC [2] of the same molecule?
A: The MIC was 0.192 ± 0.044 µM (≈ 0.411 µg/mL).

Q: How did the MIC (E. coli J2210) turn out when `CC[C@H](C)[C@H](NC(=O)[C@H](CCCNC(=N)N)NC(=O)[C@@H](N)CCCNC(=N)N)C(=O)N[C@@H](CCCCN)C(=O)N1CCC[C@H]1C(=O)N[C@@H](CCCNC(=N)N)C(=O)N1CCC[C@H]1C(=O)N1CCC[C@H]1C(=O)N[C@@H](CCCNC(=N)N)C(=O)N[C@@H](CC(C)C)C(=O)N1CCC[C@H]1C(=O)N[C@@H](CCCNC(=N)N)C(=O)N1CCC[C@H]1C(=O)N[C@@H](CCCNC(=N)N)C(=O)N1CCC[C@H]1C(=O)N[C@@H](CCCCN)C(=O)O` [Bac_R4K/R16K] (H-RRIKPRPPRLPRPRPK-OH) was run?
A: Its MIC is 0.120 ± 0.028 µM (≈ 0.242 µg/mL).

Q: And the MIC (E. coli JJ2489)?
A: Its MIC is 0.120 ± 0.028 µM (≈ 0.242 µg/mL).

Q: What about the MIC [1] of the same molecule?
A: Its MIC is 0.157 ± 0.054 µM (≈ 0.317 µg/mL).

Q: What about the MIC (E. coli JW0013) of the same molecule?
A: Its MIC is 0.060 ± 0.014 µM (≈ 0.121 µg/mL).

Q: And the MIC [2]?
A: Its MIC is 0.120 ± 0.028 µM (≈ 0.242 µg/mL).

Q: With `CC(C)C[C@H](NC(=O)[C@H](CCCNC(=N)N)NC(=O)[C@@H]1CCCN1C(=O)[C@H](CCCNC(=N)N)NC(=O)[C@@H]1CCCN1C(=O)[C@@H]1CCCN1C(=O)[C@H](CCCNC(=N)N)NC(=O)[C@@H]1CCCN1C(=O)[C@H](CCC(N)=O)NC(=O)[C@@H]1CCCN1C(=O)[C@H](CCCNC(=N)N)NC(=O)[C@H](Cc1ccc(O)cc1)NC(=O)[C@@H](NC(=O)[C@@H]1CCCN1C(=O)[C@H](CCCCN)NC(=O)[C@H](CC(N)=O)NC(=O)[C@H](CC(N)=O)NC(=O)CN)C(C)C)C(=O)O` [Api_R4K/I8R/H15R] (H-GNNKPVYRPQPRPPRPRL-OH) as the molecule, how does the MIC (E. coli J2210) read?
A: The MIC was 0.252 ± 0.087 µM (≈ 0.54 µg/mL).

Q: And the MIC (E. coli JJ2489)?
A: Its MIC is 0.133 ± 0.061 µM (≈ 0.285 µg/mL).

Q: What about the MIC [1] of the same molecule?
A: The MIC was 0.096 ± 0.023 µM (≈ 0.206 µg/mL).

Q: Which results are given for `CC[C@H](C)[C@H](NC(=O)[C@H](CCCNC(=N)N)NC(=O)[C@@H](N)CCCNC(=N)N)C(=O)N[C@@H](CCCCN)C(=O)N[C@@H](CCCCN)C(=O)N[C@@H](CCCNC(=N)N)C(=O)N1CCC[C@H]1C(=O)N1CCC[C@H]1C(=O)N[C@@H](CCCNC(=N)N)C(=O)N[C@@H](CC(C)C)C(=O)N1CCC[C@H]1C(=O)N[C@@H](CCCNC(=N)N)C(=O)N1CCC[C@H]1C(=O)N[C@@H](CCCNC(=N)N)C(=O)N1CCC[C@H]1C(=O)N[C@@H](CCCNC(=N)N)C(=O)O` [Bac_R4K/P5K] (H-RRIKKRPPRLPRPRPR-OH)?
A: MIC (E. coli J2210): 0.157 ± 0.054 µM (≈ 0.326 µg/mL); MIC (E. coli JJ2489): 0.120 ± 0.028 µM (≈ 0.25 µg/mL); MIC [1]: 0.120 ± 0.028 µM (≈ 0.25 µg/mL); MIC (E. coli JW0013): 0.060 ± 0.014 µM (≈ 0.125 µg/mL); MIC [2]: 0.120 ± 0.028 µM (≈ 0.25 µg/mL)

Q: What does the source list for `CC(C)C[C@H](NC(=O)[C@H](CCCNC(=N)N)NC(=O)[C@@H]1CCCN1C(=O)[C@H](CCCNC(=N)N)NC(=O)[C@@H]1CCCN1C(=O)[C@@H]1CCCN1C(=O)[C@H](CCCNC(=N)N)NC(=O)[C@@H]1CCCN1C(=O)[C@H](CCC(N)=O)NC(=O)[C@@H]1CCCN1C(=O)[C@H](CCCCN)NC(=O)[C@H](Cc1ccc(O)cc1)NC(=O)[C@@H](NC(=O)[C@@H]1CCCN1C(=O)[C@H](CCCCN)NC(=O)[C@H](CC(N)=O)NC(=O)[C@H](CC(N)=O)NC(=O)CN)C(C)C)C(=O)O` [Api_R4K/I8K/H15R] (H-GNNKPVYKPQPRPPRPRL-OH)?
A: MIC (E. coli J2210): 0.267 ± 0.097 µM (≈ 0.565 µg/mL); MIC (E. coli JJ2489): 0.252 ± 0.087 µM (≈ 0.533 µg/mL); MIC [1]: 0.133 ± 0.061 µM (≈ 0.281 µg/mL); MIC (E. coli JW0013): 0.096 ± 0.023 µM (≈ 0.203 µg/mL)

Q: For `CC[C@H](C)[C@H](NC(=O)[C@H](Cc1ccc(O)cc1)NC(=O)[C@@H](NC(=O)[C@@H]1CCCN1C(=O)[C@H](CCCCN)NC(=O)[C@H](CC(N)=O)NC(=O)[C@H](CC(N)=O)NC(=O)CN)C(C)C)C(=O)N1CCC[C@H]1C(=O)N[C@@H](CCC(N)=O)C(=O)N1CCC[C@H]1C(=O)N[C@@H](CCCNC(=N)N)C(=O)N1CCC[C@H]1C(=O)N1CCC[C@H]1C(=O)N[C@@H](CCCNC(=N)N)C(=O)N1CCC[C@H]1C(=O)N[C@@H](CCCNC(=N)N)C(=O)N[C@@H](CC(C)C)C(=O)O` [Api_R4K/H15R] (H-GNNKPVYIPQPRPPRPRL-OH), which MIC (E. coli J2210) is on record?
A: The MIC was 0.133 ± 0.061 µM (≈ 0.279 µg/mL).

Q: What about the MIC (E. coli JJ2489) of the same molecule?
A: Its MIC is 0.067 ± 0.033 µM (≈ 0.141 µg/mL).

Q: And the MIC [1]?
A: The MIC was 0.067 ± 0.033 µM (≈ 0.141 µg/mL).

Q: And the MIC (E. coli JW0013)?
A: Its MIC is 0.048 ± 0.011 µM (≈ 0.101 µg/mL).

Q: What about the MIC [2] of the same molecule?
A: The MIC was 0.126 ± 0.052 µM (≈ 0.265 µg/mL).

Q: Which results are given for `CC[C@H](C)[C@H](NC(=O)[C@H](CCCNC(=N)N)NC(=O)[C@@H](N)CCCNC(=N)N)C(=O)N[C@@H](CCCNC(=N)N)C(=O)N[C@@H](CCCCN)C(=O)N[C@@H](CCCNC(=N)N)C(=O)N1CCC[C@H]1C(=O)N1CCC[C@H]1C(=O)N[C@@H](CCCNC(=N)N)C(=O)N[C@@H](CC(C)C)C(=O)N1CCC[C@H]1C(=O)N[C@@H](CCCNC(=N)N)C(=O)N1CCC[C@H]1C(=O)N[C@@H](CCCNC(=N)N)C(=O)N1CCC[C@H]1C(=O)N[C@@H](CCCCN)C(=O)O` [Bac_P5K/R16K] (H-RRIRKRPPRLPRPRPK-OH)?
A: MIC (E. coli J2210): 0.157 ± 0.054 µM (≈ 0.326 µg/mL); MIC (E. coli JJ2489): 0.120 ± 0.028 µM (≈ 0.25 µg/mL); MIC [1]: 0.120 ± 0.028 µM (≈ 0.25 µg/mL); MIC (E. coli JW0013): 0.060 ± 0.014 µM (≈ 0.125 µg/mL); MIC [2]: 0.120 ± 0.028 µM (≈ 0.25 µg/mL)

Q: How did the MIC (E. coli J2210) turn out when `CC[C@H](C)[C@H](NC(=O)[C@H](CCCNC(=N)N)NC(=O)[C@@H](N)CCCNC(=N)N)C(=O)N[C@@H](CCCCN)C(=O)N[C@@H](CCCCN)C(=O)N[C@@H](CCCNC(=N)N)C(=O)N1CCC[C@H]1C(=O)N1CCC[C@H]1C(=O)N[C@@H](CCCNC(=N)N)C(=O)N[C@@H](CC(C)C)C(=O)N1CCC[C@H]1C(=O)N[C@@H](CCCNC(=N)N)C(=O)N1CCC[C@H]1C(=O)N[C@@H](CCCNC(=N)N)C(=O)N1CCC[C@H]1C(=O)N[C@@H](CCCCN)C(=O)O` [Bac_R4K/P5K/R16K] (H-RRIKKRPPRLPRPRPK-OH) was run?
A: Its MIC is 0.167 ± 0.061 µM (≈ 0.343 µg/mL).

Q: What about the MIC (E. coli JJ2489) of the same molecule?
A: The MIC was 0.120 ± 0.028 µM (≈ 0.246 µg/mL).

Q: And the MIC [1]?
A: Its MIC is 0.167 ± 0.061 µM (≈ 0.343 µg/mL).

Q: What about the MIC (E. coli JW0013) of the same molecule?
A: Its MIC is 0.060 ± 0.014 µM (≈ 0.123 µg/mL).

Q: What about the MIC [2] of the same molecule?
A: Its MIC is 0.120 ± 0.028 µM (≈ 0.246 µg/mL).

Q: Which MIC [1] does the source give for `CC(C)C[C@H](NC(=O)[C@H](CCCNC(=N)N)NC(=O)[C@@H]1CCCN1C(=O)[C@H](CCCNC(=N)N)NC(=O)[C@@H]1CCCN1C(=O)[C@@H]1CCCN1C(=O)[C@H](CCCNC(=N)N)NC(=O)[C@@H]1CCCN1C(=O)[C@H](CCC(N)=O)NC(=O)[C@@H]1CCCN1C(=O)[C@H](CCCNC(=N)N)NC(=O)[C@H](Cc1ccc(O)cc1)NC(=O)[C@@H](NC(=O)[C@@H]1CCCN1C(=O)[C@H](CCCNC(=N)N)NC(=O)[C@H](CC(N)=O)NC(=O)[C@H](CC(N)=O)NC(=O)CN)C(C)C)C(=O)O` [Api_I8R/H15R] (H-GNNRPVYRPQPRPPRPRL-OH) here?
A: Its MIC is 0.067 ± 0.033 µM (≈ 0.145 µg/mL).

Q: What about the MIC (E. coli JW0013) of the same molecule?
A: Its MIC is 0.048 ± 0.011 µM (≈ 0.104 µg/mL).

Q: With `CC[C@H](C)[C@H](NC(=O)[C@H](CCCNC(=N)N)NC(=O)[C@@H](N)CCCNC(=N)N)C(=O)N[C@@H](CCCNC(=N)N)C(=O)N1CCC[C@H]1C(=O)N[C@@H](CCCNC(=N)N)C(=O)N1CCC[C@H]1C(=O)N1CCC[C@H]1C(=O)N[C@@H](CCCNC(=N)N)C(=O)N[C@@H](CC(C)C)C(=O)N1CCC[C@H]1C(=O)N[C@@H](CCCNC(=N)N)C(=O)N1CCC[C@H]1C(=O)N[C@@H](CCCNC(=N)N)C(=O)N1CCC[C@H]1C(=O)N[C@@H](CCCNC(=N)N)C(=O)O` [Bac_WT, reference compound] (H-RRIRPRPPRLPRPRPR-OH) as the molecule, how does the MIC (E. coli J2210) read?
A: Its MIC is 0.120 ± 0.028 µM (≈ 0.249 µg/mL).

Q: What about the MIC (E. coli JJ2489) of the same molecule?
A: The MIC was 0.120 ± 0.028 µM (≈ 0.249 µg/mL).

Q: What about the MIC [1] of the same molecule?
A: Its MIC is 0.120 ± 0.028 µM (≈ 0.249 µg/mL).

Q: And the MIC [2]?
A: The MIC was 0.060 ± 0.014 µM (≈ 0.125 µg/mL).
